Results taken from patent US10195187B2, “Oxybutynin-xanomeline transdermal therapeutic system combinations” (Chase Pharmaceuticals Corporation, priority 2015, dated 2019).

Columns and labels:
muscarinic receptors = conditions: oral and iontophoretic patch administration; cited from earlier work
Male Swiss mice [1] = experiment: Antagonism of xanomeline-induced diarrhea in mice by oxybutynin (fecal pellet count); type: in vivo, mouse; conditions: oxybutynin i.p. 0.3 to 30 mg/kg, 30 min before xanomeline 30 mg/kg
Method: The total number of fecal pellets for each mouse was counted over time. An analysis of variance (ANOVA) was performed on the results. Fisher's Protected Least Significant Difference was used for pairwise comparisons; p values≤0.05 were considered significant. Grubbs' test (http (hypertext transfer protocol) www at graphpad.com/quickcalcs/Grubbs1.cfm) was used to detect outliers for each parameter in each experimental group. […] Mice were placed individually in cages without any bedding materials. During the experiment the number of fecal pellets was counted at different time-points as outlined below:
T0: administration of oxybutinin.
T30 min: administration of vehicle or xanomeline.
T 30 min to T 2.5 h: counting of accumulated fecal pellets excreted.
T+2.5 h to T+4.5 h: counting of accumulated fecal pellets excreted.
The total number of fecal pellets for each mouse was counted over time. An analysis of variance (ANOVA) was performed on the results. Fisher's Protected Least Significant Difference was used for pairwise comparisons. The p value≤0.05 were considered significant. Grubbs' test (http (hypertext transfer protocol) www at graphpad.com/quickcalcs/Gnibbs1.cfm) was used to detect outliers for each parameter in each experimental group.

Male Swiss mice [2] = experiment: T-maze continuous alternation task (T-CAT) in mice; type: in vivo, mouse
Text: Evaluation of Cognition with Oxybutynin and Xanomeline in the T-maze Alternation Task in Mice
The T-maze continuous alternation task (T-CAT) is useful as model for studying compounds with cognitive enhancing properties. The T-maze consists of 2 choice arms and 1 start arm mounted to a square center. Manual doors are provided to close specific arms during the force choice alternation task. Male Swiss mice (4-6 weeks old), N=10 per treatment group were used, and were pre-treated with:
Thirty minutes later mice were treated with either vehicle or one of 4 doses of xanomeline:
a dose that caused diarrhea.
Mice were randomly assigned to one of the different experimental treatment groups. Each animal was identified by its group name, cage number, series (day) of experiment, and number (1 to 10) written with permanent ink on the tail.
The T-maze apparatus is made of gray Plexiglas with a main stem (55 cm long×10 cm wide×20 cm high) and two arms (30 cm long×10 cm wide×20 cm high) positioned at 90 degree angle relative to the main stem. A start box (15 cm long×10 cm wide) is separated from the main stem by a guillotine door. Horizontal doors are also provided to close specific arms during the force choice alternation task. The experimental protocol consisted of one single session, which started with 1 “forced-choice” trial, followed by 14 “free-choice” trials. In the first “forced-choice” trial, animals were confined for 5 seconds to the start arm and then were released while either the left or the right goal arm was blocked by the horizontal door. Animals then negotiated the maze, eventually entering the open goal arm, and returned to the start position. […] The percentage of alternation over the 14 free-choice trials was determined for each mouse and was used as an index of working memory performance. […] The drug-induced improvement of memory was calculated by setting the respective response of the saline/vehicle as 100% and that of the test group as 0% reversion. […]

[3] = McCrery and Appell 2006; cited from earlier work
Male Swiss mice [4] = experiment: Dose-response to xanomeline in a mouse model of diarrhea (fecal pellet count); type: in vivo; conditions: xanomeline i.p. 0.3 to 30 mg/kg
Text: Study 1—Establishment of the Dose-Response to Xanomeline in a Mouse Model of Diarrhea.
Male Swiss mice (4-6 weeks old), N=10 per treatment group were used, and treated intra-peritoneally (i.p.) with either vehicle (vehicle group) or increasing doses of xanomeline, a representative muscarinic agonist. Mice were randomly assigned to one of two experimental groups (vehicle; or increasing doses of xanomeline). Each animal was identified by its group name, cage number, series (day) of experiment, and number (1 to 10) written with permanent ink on the tail. Mice were placed individually in cages without any bedding materials. During the experiment the number of fecal pellets were counted at different time-points, starting one hour before the time of the administration of the test compound (T0), as outlined below:
T−1 h to T0: counting of the accumulated fecal pellets excreted.
T0: administration of the test compound.
T0 to T+2 h: counting of the accumulated fecal pellets excreted.
T+2 h to T+4 h: counting of the accumulated fecal pellets excreted.
The total number of fecal pellets for each mouse was counted over time. An analysis of variance (ANOVA) was performed on the results. […] During the experiment the number of fecal pellets was counted at different time-points as outlined below: […]

[5] = test system: patients with Alzheimer disease; conditions: cited from earlier work

SMILES: NC(=O)C(c1ccccc1)(c1ccccc1)[C@@H]1CCN(CCc2ccc3c(c2)CCO3)C1 [darifenacin]
- effectiveness relative to other muscarinic antagonists in combination with muscarinic agonists (muscarinic receptors): less effective than the other muscarinic antagonists

SMILES: CCN(CC)CC#CCOC(=O)C(O)(c1ccccc1)C1CCCCC1 (stereo not shown) [oxybutynin, 4-diethylaminobut-2-ynyl 2-cyclohexyl-2-hydroxy-2-phenylethanoate]
- antagonism of xanomeline-induced diarrhea (fecal pellets) (Male Swiss mice [1]): dose-dependently antagonized the diarrhea induced by xanomeline
- ability to perform the T-maze test after oxybutynin pretreatment (Male Swiss mice [2]; i.p. oxybutynin 30 min before xanomeline): restored the animals' ability to perform the T-maze test
- crossing of the blood brain barrier [3]: able to cross the blood brain barrier

SMILES: CCCCCCOc1nsnc1C1=CCCN(C)C1 [xanomeline, 3-[4-(Hexyloxy)-1,2,5-thiadiazol-3-yl]-1,2,5,6-tetrahydro-1-methylpyridine]
- diarrhea (number of fecal pellets excreted) (Male Swiss mice [4]): dose-dependently causes diarrhea
- ability to perform the T-maze test at the higher dose (Male Swiss mice [2]; i.p. xanomeline, higher dose (dose that caused diarrhea)): animals were too sick to perform the test
- performance in the T-maze (percentage of alternation) (Male Swiss mice [2]; i.p. xanomeline, mice): dose-dependent increase in performance in the T-maze
- cognitive and behavioral symptoms of Alzheimer disease compared to placebo ([5]; 6-month trial, Bodick et al, 1997): significantly improve cognitive and behavioral symptoms of Alzheimer disease
- discontinuation rate ([5]; Alzheimer's patient population, Mirza et al. 2003): higher than 50%
- side effects ([5]; patients with Alzheimer disease, Bodick et al, 1997): dose-dependent unacceptable side effects, including bradycardia, gastro-intestinal distress, excessive salivation, and sweating
